The source of these data is patent US10004701B2, “Methods and compositions for treating infection” (UNIVERSITY OF ROCHESTER, priority 2012, dated 2018).

What all share (test): AK assay 384-well format, Prestwick library screening
One assay deals with K. pneumoniae. The format is cell-based, Klebsiella pneumoniae. To be noted: for fold induction at 50 µM: Klebsiella pneumoniae, 3 h.
Another assay concerns E. cloacae. The format is cell-based, Enterobacter cloacae. Particulars: for fold induction at 50 µM: Enterobacter cloacae, 3 h.
For another assay, the system named is E. faecium. The format is cell-based, Enterococcus faecium. To be noted: for fold induction at 50 µM: Enterococcus faecium, 3 h.
For a further assay, the system named is E. coli. The format is cell-based, Escherichia coli. To be noted: for fold induction at 50 µM: Escherichia coli, 3 h.
The next assay has as its system P. aeruginosa. The format is cell-based, Pseudomonas aeruginosa. To be noted: for fold induction at 50 µM: Pseudomonas aeruginosa, 3 h.
In assay [1] the test system is S. aureus strain USA300-0114. The format is cell-based, Staphylococcus aureus. Particulars: for fold induction at 50 µM: Staphylococcus aureus, USA300, 3 h.
The test system of assay [2] is A. baumannii strain 98-37-09. In kind it is cell-based, Acinetobacter baumannii. Particulars: for fold induction at 50 µM: Acinetobacter baumannii, 983709, 3 h.
Setting [3] is: 50 μM final drug concentration, 384-well format, cutoff for positive-scoring molecules 3-fold increase.

Each structure is given as a SMILES string. Counter-ions that a name gives are not always drawn. Like-named read-outs stand apart in the source and are kept apart here.

Consider `OCCN1CCN(CC/C=C2/c3ccccc3Sc3ccc(Cl)cc32)CC1` [Zuclopenthixol hydrochloride], for which the fold induction at 50 µM in the assay on K. pneumoniae (planktonic K. pneumoniae, 50 μM final drug concentration, positive cutoff 3-fold increase, read-out: AK-based Prestwick library screening result, K. pneumoniae (fold increase in extracellular AK activity)) turned out to be 1; in the assay with E. cloacae (planktonic E. cloacae, 50 μM final drug concentration, positive cutoff 3-fold increase, read-out: AK-based Prestwick library screening result, E. cloacae (fold increase in extracellular AK activity)) it was 1.3; in the assay with E. faecium (planktonic E. faecium, 50 μM final drug concentration, positive cutoff 3-fold increase, read-out: AK-based Prestwick library screening result, E. faecium (fold increase in extracellular AK activity)) it was 1; in the assay on E. coli (planktonic E. coli, 50 μM final drug concentration, positive cutoff 3-fold increase, read-out: AK-based Prestwick library screening result, E. coli (fold increase in extracellular AK activity)) it was 1.2; in the assay on P. aeruginosa (planktonic P. aeruginosa, 50 μM final drug concentration, positive cutoff 3-fold increase, read-out: AK-based Prestwick library screening result, P. aeruginosa (fold increase in extracellular AK activity)) it was 0.9; in assay [1] (planktonic S. aureus, 50 μM final drug concentration, positive cutoff 3-fold increase, read-out: AK-based Prestwick library screening result, S. aureus (fold increase in extracellular AK activity)), 0.7. Further, the fold induction at 50 µM in assay [2] (planktonic A. baumannii, 50 μM final drug concentration, positive cutoff 3-fold increase, read-out: AK-based Prestwick library screening result, A. baumannii (fold increase in extracellular AK activity)) came out at 1.9.
Turning to `C=CCSCC1Nc2cc(Cl)c(S(N)(=O)=O)cc2S(=O)(=O)N1` (stereo not shown) [Althiazide], the fold induction at 50 µM was 0.4 with K. pneumoniae (50 μM final drug concentration, planktonic, cutoff for positive 3-fold increase, read-out: AK-based Prestwick Library Screening Results, K. pneumoniae (fold increase in extracellular AK activity)); 0.3 with E. cloacae (50 μM final drug concentration, planktonic, cutoff for positive 3-fold increase, read-out: AK-based Prestwick Library Screening Results, E. cloacae (fold increase in extracellular AK activity)); 1 with E. faecium (50 μM final drug concentration, planktonic, cutoff for positive 3-fold increase, read-out: AK-based Prestwick Library Screening Results, E. faecium (fold increase in extracellular AK activity)); 0.4 in the assay on E. coli (50 μM final drug concentration, planktonic, cutoff for positive 3-fold increase, read-out: AK-based Prestwick Library Screening Results, E. coli (fold increase in extracellular AK activity)); 0.4 in the assay with P. aeruginosa (50 μM final drug concentration, planktonic, cutoff for positive 3-fold increase, read-out: AK-based Prestwick Library Screening Results, P. aeruginosa (fold increase in extracellular AK activity)); 0.4 in assay [1] (50 μM final drug concentration, planktonic, cutoff for positive 3-fold increase, read-out: AK-based Prestwick Library Screening Results, S. aureus (fold increase in extracellular AK activity)). In addition, the fold induction at 50 µM in assay [2] (50 μM final drug concentration, planktonic, cutoff for positive 3-fold increase, read-out: AK-based Prestwick Library Screening Results, A. baumannii (fold increase in extracellular AK activity)) was determined as 0.4.
Consider `N[C@@H](Cc1cc(I)c(Oc2ccc(O)c(I)c2)c(I)c1)C(=O)O` [Liothyronine], for which the fold induction at 50 µM in the assay with K. pneumoniae (50 μM final drug concentration, cutoff for positive-scoring molecules 3-fold increase, read-out: AK-based Prestwick Library Screening Results, K. pneumoniae (fold increase in extracellular AK activity)) worked out at 0.9; in the assay with E. cloacae (50 μM final drug concentration, cutoff for positive-scoring molecules 3-fold increase, read-out: AK-based Prestwick Library Screening Results, E. cloacae (fold increase in extracellular AK activity)), 1.6; in the assay with E. faecium (50 μM final drug concentration, cutoff for positive-scoring molecules 3-fold increase, read-out: AK-based Prestwick Library Screening Results, E. faecium (fold increase in extracellular AK activity)), 1.1; with E. coli (read-out: AK-based Prestwick Library Screening Results, E. coli (fold increase in extracellular AK activity)), 1.2; in the assay with P. aeruginosa (50 μM final drug concentration, cutoff for positive-scoring molecules 3-fold increase, read-out: AK-based Prestwick Library Screening Results, P. aeruginosa (fold increase in extracellular AK activity)), 1.1; in assay [1] (50 μM final drug concentration, cutoff for positive-scoring molecules 3-fold increase, read-out: AK-based Prestwick Library Screening Results, S. aureus (fold increase in extracellular AK activity)), 1. The fold induction at 50 µM in assay [2] (50 μM final drug concentration, cutoff for positive-scoring molecules 3-fold increase, read-out: AK-based Prestwick Library Screening Results, A. baumannii (fold increase in extracellular AK activity)) came to 1.1.
Consider `Cc1cc2c(cc1S(N)(=O)=O)S(=O)(=O)CCC2` [Meticrane], for which the fold induction at 50 µM with K. pneumoniae (50 μM final drug concentration, 384-well format, […], read-out: AK-based Prestwick Library Screening Results, K. pneumoniae (increase in extracellular AK activity)) was 0.5; in the assay with E. cloacae (50 μM final drug concentration, 384-well format, […], read-out: AK-based Prestwick Library Screening Results, E. cloacae (increase in extracellular AK activity)) it was 0.7; in the assay on E. faecium (50 μM final drug concentration, 384-well format, […], read-out: AK-based Prestwick Library Screening Results, E. faecium (increase in extracellular AK activity)), 0.9; in the assay on E. coli (50 μM final drug concentration, 384-well format, […], read-out: AK-based Prestwick Library Screening Results, E. coli (increase in extracellular AK activity)), 0.6; with P. aeruginosa (50 μM final drug concentration, 384-well format, […], read-out: AK-based Prestwick Library Screening Results, P. aeruginosa (increase in extracellular AK activity)), 0.6; in assay [1] (50 μM final drug concentration, 384-well format, […], read-out: AK-based Prestwick Library Screening Results, S. aureus (increase in extracellular AK activity)), 0.8. Further, in assay [2] (50 μM final drug concentration, 384-well format, […], read-out: AK-based Prestwick Library Screening Results, A. baumannii (increase in extracellular AK activity)), the fold induction at 50 µM is 0.8.
Take `COc1cc2c(c(OC)c1OC)-c1ccc(OC)c(=O)cc1[C@@H](NC(C)=O)CC2` [Colchicine]: the fold induction at 50 µM with K. pneumoniae (read-out: AK-based Prestwick Library Screening Results, K. pneumoniae (increase in extracellular AK activity)) was 0.9; in the assay with E. cloacae (read-out: AK-based Prestwick Library Screening Results, E. cloacae (increase in extracellular AK activity)) it was 1.1; in the assay on E. faecium (read-out: AK-based Prestwick Library Screening Results, E. faecium (increase in extracellular AK activity)) it was 1; in the assay with E. coli (read-out: AK-based Prestwick Library Screening Results, E. coli (increase in extracellular AK activity)) it was 1.2; with P. aeruginosa (read-out: AK-based Prestwick Library Screening Results, P. aeruginosa (increase in extracellular AK activity)), 1; in assay [1] (read-out: AK-based Prestwick Library Screening Results, S. aureus (increase in extracellular AK activity)) it was 1. Also, in assay [2] (read-out: AK-based Prestwick Library Screening Results, A. baumannii (increase in extracellular AK activity)), the fold induction at 50 µM was 1.
As to `O.O=C(O)[C@@H]1[C@H]2C[C@H]3c4[nH]c5ccccc5c4CCN3C[C@@H]2CC[C@@H]1O` [Yohimbinic acid monohydrate], the “AK-based Prestwick Library Screening Results, K. pneumoniae (increase in extracellular AK activity)” value with K. pneumoniae (planktonic K. pneumoniae, 50 μM final drug concentration, […]) came out at 0.7. Moreover, the “AK-based Prestwick Library Screening Results, E. cloacae (increase in extracellular AK activity)” value in the assay with E. cloacae (planktonic E. cloacae, 50 μM final drug concentration, […]) amounted to 0.9. Besides, the “AK-based Prestwick Library Screening Results, E. faecium (increase in extracellular AK activity)” value with E. faecium (planktonic E. faecium, 50 μM final drug concentration, […]) came to 0.9. The “AK-based Prestwick Library Screening Results, E. coli (increase in extracellular AK activity)” value in the assay with E. coli (planktonic E. coli, 50 μM final drug concentration, […]) is reported as 0.9. In the assay on P. aeruginosa (planktonic P. aeruginosa, 50 μM final drug concentration, […]), the “AK-based Prestwick Library Screening Results, P. aeruginosa (increase in extracellular AK activity)” value was found to be 0.9. The “AK-based Prestwick Library Screening Results, S. aureus (increase in extracellular AK activity)” value in assay [1] (planktonic S. aureus, 50 μM final drug concentration, […]) is 0.7. Besides, in assay [2] (planktonic A. baumannii, 50 μM final drug concentration, […]), the “AK-based Prestwick Library Screening Results, A. baumannii (increase in extracellular AK activity)” value is recorded as 0.8.
Turning to `Cc1c(O)c(=O)n(-c2ccccc2)n1C` [Antipyrine, 4-hydroxy], the “AK-based Prestwick Library Screening Results, K. pneumoniae (increase in extracellular AK activity)” value with K. pneumoniae (setting [3]) is on record as 0.7. Moreover, the “AK-based Prestwick Library Screening Results, E. cloacae (increase in extracellular AK activity)” value in the assay with E. cloacae (setting [3]) is 1.0. For the same compound, the “AK-based Prestwick Library Screening Results, E. faecium (increase in extracellular AK activity)” value with E. faecium (setting [3]) was found to be 1.0. Further, the “AK-based Prestwick Library Screening Results, E. coli (increase in extracellular AK activity)” value in the assay with E. coli (setting [3]) amounted to 0.9. In the assay with P. aeruginosa (setting [3]), the “AK-based Prestwick Library Screening Results, P. aeruginosa (increase in extracellular AK activity)” value is 0.8. Also, the “AK-based Prestwick Library Screening Results, S. aureus (increase in extracellular AK activity)” value in assay [1] (setting [3]) turned out to be 0.7. The “AK-based Prestwick Library Screening Results, A. baumannii (increase in extracellular AK activity)” value in assay [2] (setting [3]) was 0.8.
